Drawing on PubChem BioAssay AID179 (DTP/NCI, 2004), this text covers EC50, IC50 and outcome for 75 compounds.

Calls of active or inactive are those of the source.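 Rule for the calls: active = compounds giving half or more protection of infected cells from virus-caused growth loss, again on retest; inactive = the rest.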

This experiment relates to CEM cells HIV-1 protection, formazan growth assay. Description: NCI AIDS Antiviral Assay. Particulars: for IC50: measured here: growth of uninfected CEM cells. The gist of the method: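 Screen of anti-HIV-1 activity in human CEM cells using a formazan-based growth measurement at five drug concentrations. Hits with 50% or greater protection were repeated, and confirmation required reproducible complete protection.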

A word on the EC50: it is the concentration giving half of the maximal effect. What is called IC50 is the concentration that inhibits the measured activity by half. Higher therefore signals lower potency. Take `Cc1ccccc1C(C#N)/C(=N/NC(N)=S)C(=O)Nc1c(C)cccc1C` (stereo not given): the EC50 was above 245 µM and the IC50 came out at 224 µM.

As for `O=C(Cc1ccccc1)N/N=C(/c1nc2ccc([N+](=O)[O-])cc2[nH]c1=O)C(O)c1ccco1` (stereo not given), the EC50 is above 209 µM and the IC50 is above 209 µM. In the case of `CCOC(=O)/C=C/C1OC(C)(C)OC1/C=C/C(=O)OCC` (stereo not given), the EC50 is above 200 µM and the IC50 came to 27.5 µM. Taken in the same sequence, the figures for `Cc1cc(C)c(NS(=O)c2ccc(Cl)cc2)c(C)c1` (stereo not given) were above 33.9 µM and above 33.9 µM. Taken in the same sequence, the figures for `CC(C(=O)O)N(N=O)c1ccccc1` (stereo not given) were above 676 µM and above 676 µM. Taken in the same sequence, the figures for `CCOC(=O)C(=O)Nc1c(CC)cccc1C(C)C` were above 355 µM and above 355 µM. For `COC1Sc2ccccc2C(=O)N2CCCC12` (stereo not given), the EC50 was above 200 µM and the IC50 was above 200 µM. With `C=CN1C(=O)[C@H](Oc2ccccc2)[C@@H]1c1ccccc1`, the EC50 is above 135 µM and the IC50 was determined as 63.1 µM. Taken in the same sequence, the figures for `NNC(=O)NNC(=O)NN` were above 200 µM and above 200 µM. Taken in the same sequence, the figures for `C[C@@H]1OC2(O)[C@@H]3CCCN3C(=O)N(Cc3ccccc3)N2C1=O` (stereo not given in full) were above 200 µM and above 200 µM. Taken in the same sequence, the figures for `CCCCN1C(=O)[C@](O)(NC(C)=O)[C@H]1COC(C)(C)C` were above 43.7 µM and above 43.7 µM. On to `O=c1cnn(C2OC(CO)C(F)C2F)c(=O)[nH]1` (stereo not given), for which the EC50 is above 363 µM and the IC50 was above 363 µM. For `Nc1ccn(C2OC(C(O)CO)C(O)C2O)c(=O)n1` (stereo not given), the result was inactive. In the case of `CC1(C)CCc2c(cc3c(c2O)CCC(C)(C)O3)O1`, the EC50 is above 200 µM and the IC50 was above 200 µM.

Regarding `COc1ccccc1N/C(=C\C(=O)C(=O)NC12CC3CC(CC(C3)C1)C2)c1ccccc1`, the EC50 was above 200 µM and the IC50 is above 200 µM.

As to `CCN(CCO)CCCC(C)Nc1ccnc2cc(Cl)ccc12` (stereo not given), the EC50 was above 200 µM and the IC50 turned out to be 64.6 µM. As for `O[C@]12c3ccccc3C1CCCCC2N1CCOCC1` (stereo not given in full), the EC50 is above 200 µM and the IC50 was above 200 µM.

Take `C[C@]12CCC(=O)C=C1CC[C@@H]1C2CC[C@]2(C)NC(=O)C(C#N)CC12` (stereo not given in full): the result was inactive. As to `CNNc1ncnc2c1cnn2C`, the EC50 is above 794 µM and the IC50 is above 794 µM.

Consider `CC(=O)C1=C(O)C(c2ccccc2)c2ccccc21` (stereo not given), for which the EC50 is above 389 µM and the IC50 turned out to be 97.7 µM. With `CCc1n[nH]c(=O)n1/N=C/c1ccccc1Cl`, the EC50 is above 200 µM and the IC50 is above 200 µM. For `Cc1nc(C(N)=S)sc1C(=O)CC(=O)C(=O)Nc1cccc(Cl)c1C`, the EC50 is above 170 µM and the IC50 was above 170 µM. Turning to `CN(C)c1ccc(N=Nc2cccc3ncccc23)cc1`, the EC50 was above 200 µM and the IC50 came to 72.4 µM. Taken in the same sequence, the figures for `Oc1cc(O)c2c(c1)OC(c1ccc(O)c(O)c1)C(O)C2c1c(O)cc(O)c2c1OC(c1ccc(O)c(O)c1)C(O)C2` (stereo not given) were above 200 µM and 102 µM. Taken in the same sequence, the figures for `CC1(C)CCCCCCCCCC(C)(CCCCCCCCCCCCO)C1=O` (stereo not given) were above 200 µM and 18.6 µM.

For `COC(=O)C1(Cc2cccc(Cl)c2)CCCCCCN1C(=O)c1ccccc1` (stereo not given), the EC50 is above 112 µM and the IC50 was 20.4 µM. Taken in the same sequence, the figures for `CCOC(=O)C(/C(=N/NC(=O)OC)C(=O)Nc1ccc(C(C)=O)cc1)c1cnc2ccccc2n1` (stereo not given) were above 39.8 µM and above 39.8 µM. Taken in the same sequence, the figures for `CNC(=O)N(CCC#N)CCN(CCN(C(=O)NC)c1ccccc1)C(=O)NC` were above 200 µM and above 200 µM. Taken in the same sequence, the figures for `O=S(=O)(SC(S(=O)(=O)c1ccccc1)S(=O)(=O)c1ccccc1)c1ccccc1` were above 537 µM and 355 µM. Turning to `C/C=C(\C1CC(=O)N2CCc3c([nH]c4ccccc34)C2C1)[Si](C)(C)C` (stereo not given), the EC50 is above 14.8 µM and the IC50 was above 14.8 µM. In the case of `O=c1[nH]c2nc3ccccc3c(=O)n2/c1=C/c1ccccc1`, the EC50 is above 200 µM and the IC50 was 9.12 µM. As to `COC(=O)C1=NN2c3ccccc3C(=O)OCCC2C1` (stereo not given), the EC50 was above 200 µM and the IC50 was above 200 µM. Consider `CCCCCCCCCCCCNC(=O)C(O)C(O)C(O)C(COS(=O)(=O)O)OS(=O)(=O)O` (stereo not given), for which the EC50 is above 200 µM and the IC50 is 30.2 µM.

`CCCCCCCCCCCc1nnc(N)o1`: the outcome was inactive. In the case of `Cn1c(/C=C(\O)c2ccccc2)nc2ccccc21`, the EC50 is above 105 µM and the IC50 worked out at 83.2 µM. On to `O=C(O)COCC(=O)N(CCOCCN(Cc1ccccc1)C(=O)COCC(=O)O)Cc1ccccc1`, for which the EC50 was above 200 µM and the IC50 was above 200 µM. For the compound `C[C@H]1c2cccc(O)c2C(O)=C2C(=O)[C@]3(O)C(O)=C(C(N)=O)C(=O)[C@@H](N(C)C)[C@@H]3[C@@H](O)[C@@H]21`, the EC50 was above 186 µM and the IC50 is 8.32 µM. Turning to `C[C@]12CCC3(CC1C(=O)CC[C@@H]2OCc1ccccc1)OCCO3` (stereo not given in full), the result was active. Take `Cc1ccc(S(=O)(=O)NN=C2CCCCCCCCCCC2)cc1`: the EC50 was above 200 µM and the IC50 is above 200 µM. As for `NCCCCN(CCCN)C(=O)c1ccccc1`, the outcome was inactive. For the compound `O=C1c2ccccc2C(=O)c2sc(Nc3ccccc3Cl)nc21`, the EC50 is above 7.94 µM and the IC50 is above 7.94 µM. On to `O=C(CC(C(=O)c1ccoc1)c1ccco1)c1ccco1` (stereo not given), for which the EC50 is above 200 µM and the IC50 was determined as 151 µM. Taken in the same sequence, the figures for `O=C(Nc1ccc(/C=C/c2ccc(NC(=O)c3cc(S(=O)(=O)O)c4cccnc4c3O)cc2S(=O)(=O)O)c(S(=O)(=O)O)c1)c1cc(S(=O)(=O)O)c2cccnc2c1O` were 4.47 µM and 148 µM.

As to `COC(=O)[C@]1(C)CCC[C@@]2(C)C1CC[C@]13C=C(C(C)C)[C@H](CC21)CC3(Cl)C#N` (stereo not given in full), the EC50 was above 200 µM and the IC50 worked out at 37.2 µM. Taken in the same sequence, the figures for `O=S1(=O)c2ccccc2C(O)(c2ccccc2)c2ccccc21` were above 200 µM and 123 µM. For `CN(C)CC1CCC(CN(C)C)C1=NO` (stereo not given), the outcome was inactive. With `O=c1[nH]c(=O)n(C2CC(O)C(CO)O2)cc1C#Cc1cc(F)cc(F)c1` (stereo not given), the EC50 is above 692 µM and the IC50 amounted to 355 µM. Consider `CCN(CC)C(=S)/N=C(\SC(=S)N(CC)CC)c1ccccc1`, for which the EC50 is above 132 µM and the IC50 stood at 52.5 µM. Taken in the same sequence, the figures for `CCOC(=O)C1=c2[nH]c3cccc4cccc(c43)n2C(=O)CC1c1ccccc1` (stereo not given) were above 100 µM and 75.9 µM. Take `CN(C)CCCN1CCC2(CCCCC2)CC1`: the result was inactive.

With `Cc1cc(C)c2c(c1)CC1(Cc3c(ccc(C)c3C)C1=O)C2=O` (stereo not given), the EC50 was above 100 µM and the IC50 is above 100 µM. Take `Cc1csc2nc(-c3ccccc3)cn12`: the EC50 was above 437 µM and the IC50 was found to be 204 µM. Taken in the same sequence, the figures for `CC12c3c4cc(Br)cc3Oc3cc(Br)cc(c31)Oc1cc(Br)cc(c12)O4` were above 200 µM and 33.1 µM. Taken in the same sequence, the figures for `C=CCC1(O)CC(n2ccc(=O)[nH]c2=O)OC1CO[Si](C)(C)C(C)(C)C` (stereo not given) were above 200 µM and above 100 µM.

In the case of `COC(=O)c1cc(C(=CCCCCCBr)c2cc(Cl)c(OC)c(C(=O)OC)c2)cc(Cl)c1OC`, the EC50 was above 4.79 µM and the IC50 was above 4.79 µM. For the compound `O=C(O)Cn1ccc(=O)c2c([N+](=O)[O-])cccc21`, the EC50 was above 200 µM and the IC50 was above 200 µM. In the case of `C=C1C(=O)O[C@H]2C1C[C@H](O)[C@@]1(C)OC1CC[C@@]1(C)O[C@H]21` (stereo not given in full), the EC50 was above 200 µM and the IC50 turned out to be 6.61 µM.

For the compound `COc1cc(CNc2nc3c(NC(C)=O)cc(C(F)(F)F)cc3nc2-c2ccccc2)cc(OC)c1OC`, the EC50 was above 13.8 µM and the IC50 turned out to be 11.7 µM. For `CCNCCNCC.[O-][Cl+3]([O-])([O-])[O-].[Pd+2].c1ccc(-c2ccccn2)nc1`, the EC50 is above 200 µM and the 50% inhibitory concentration (IC50) is 30.9 µM. As for `COc1ccccc1CNCCCCCNCCCCCCCCCCNCCCCCNCc1ccccc1OC`, the EC50 was above 200 µM and the IC50 is 28.8 µM. Taken in the same sequence, the figures for `CC(=O)Oc1ccc2c(c1)[nH]c1c3ccc(OC(C)=O)cc3oc(=O)c21` were above 200 µM and 11.7 µM.

Regarding `O=S1(=O)O[C@H]2CCCC[C@H]2O1`, the EC50 was above 40.7 µM and the IC50 was above 40.7 µM.

`CCOC(=O)N1CCc2cc(OC)c(OC)cc2/C1=C\c1ccc(OC)c(OC)c1`: the result was inactive. For the compound `O=C(/C=C/c1ccccc1)CC(=O)/C=C/c1ccccc1`, the EC50 is above 200 µM and the IC50 amounted to 30.9 µM. Taken in the same sequence, the figures for `C=CCN1CC2CON(C(=O)C(OC)(c3ccccc3)C(F)(F)F)C2C1C(C)C` (stereo not given) were above 200 µM and 37.2 µM.

Regarding `OCC1NC(COC2OC(CO)C(O)C(O)C2O)C(O)C(O)C1O` (stereo not given), the outcome was inactive. Consider `COc1cc(OC)c2c(c1)OC1OC(=O)CC21` (stereo not given), for which the EC50 was above 209 µM and the IC50 is above 209 µM. Consider `CCOC(=O)C1C/C2=C(/CCCCCCCCCC2)SCCCS1` (stereo not given), for which the EC50 was above 200 µM and the IC50 was found to be 26.9 µM. Taken in the same sequence, the figures for `COI1NC(=O)c2ccccc21` were 17.4 µM and 295 µM.

Take `CN1CCN(C)C(=O)CSSCC1=O`: the EC50 is above 151 µM and the IC50 is above 151 µM.

With `COc1ccc(-c2ccccc2)c2[nH]c3c(c12)CCNC3=O`, the result was inactive.

As for `CCC/C(=N\NC(=S)N1CC2CCC(CC2)C1)c1ccccn1`, the EC50 is above 6.76 µM and the IC50 was 0.148 µM. Turning to `NNc1ncnc2cccc(Cl)c12`, the EC50 is above 200 µM and the IC50 was above 200 µM. Take `O=S(=O)(N=S(c1ccc(Cl)cc1)c1ccc(Cl)cc1)c1ccccc1`: the EC50 was above 24.5 µM and the 50% inhibitory concentration (IC50) is above 24.5 µM. `NC(=S)C(=S)N=Cc1c(O)c2ccccc2oc1=O`: the EC50 was above 200 µM and the IC50 was 102 µM.
